{"source": "patent US20220401377A1", "about": "“COMPOSITION FOR PREVENTING AND/OR TREATING NEURODEGENERATIVE DISORDERS” (ICHIMARU PHARCOS CO., LTD., priority 2019, published 2022)", "key": {"[1]": {"tested_on": "mouse model of memory impairment", "test": "Y-shaped maze test in scopolamine mouse model of memory impairment", "format": "in vivo", "settings": "ICR mice, scopolamine 3 mg/kg i.p., Y-shaped maze on day 7", "protocol": "The memory-improving effect of araliadiol was confirmed by administering (orally by sonde) a composition containing arariadiol (a compound shown in Formula I) to a mouse model of memory impairment.\nExperimental methods are described below. The following groups of ICR mice (male, 7 weeks old/purchased from SLC Japan) were established. The mice in each group, except for the untreated group, were treated with the composition orally administered by sonde and scopolamine administered intraperitoneally (i.p.). The composition contains a predetermined amount of araliadiol in distilled water. Scopolamine was administered at a dose of 3 mg per kg of mice to cause memory impairment in mice. […] For groups other than the untreated group, distilled water or the composition was administered daily from day 0 to day 6 (seven doses of the composition), with day 0 being the first day of administration of distilled water or the composition. On the 7th day, all groups of mice were tested in a Y-shaped maze test. Scopolamine was administered to all groups of mice except the untreated group 30 minutes before the start of the Y-shaped maze test. • Untreated group: 15 ICR mice that were treated with distilled water containing no araliadiol, but not with scopolamine. • Control group: 16 ICR mice were treated with distilled water containing no araliadiol and scopolamine. • Araliadiol 1 mg/kg group: 16 ICR mice were treated with a composition containing araliadiol (1 mg of araliadiol per 1 kg of mouse body weight per day: 1 mg/kg/day) and scopolamine. • Araliadiol […]: A group of 16 ICR mice that received a composition containing araliadiol (10 mg of araliadiol per kg of mouse body weight per day: 10 mg/kg/day) and a dose of SCOPE.\nThe Y-shaped maze device shown in FIG. 11 (made of gray acrylic: 40 cm long×10 cm wide×12 cm high) was used to conduct the Y-shaped maze test. In the Y-shaped maze test, mice were allowed to explore in the device, and the spontaneous alternations observed during the exploratory behavior were evaluated as short-term memory. The mice were placed at the tip of one of the three arms of the Y-shaped maze, allowed to explore freely in the maze for 8 minutes, and the arms they entered were recorded in order. The number of times for the mouse to enter each arm (total number of arm entries) and the number of combinations of consecutive entries into three different arms (number of alternation behaviors) were examined during the measurement period (8 minutes). The alternation behavior (%) was calculated from the following formula and used as an index of short-term memory.\nAlternating behavior (%)=number of alternating actions/(total number of arm entries−2)×100"}, "[2]": {"tested_on": "human breast cancer cell line (MCF-7)", "settings": "MCF-7, Non-patent literature 1; cited from earlier work"}}}
{"compound": "C=C[C@H](O)C#CC#C[C@H](O)/C=C\\CCCCC", "note": "[Araliadiol, 3(S),8(R)-pentadeca-1,9(Z)-diene-4,6-diyne-3,8-diol]", "values": [{"measurement": "Alternating behavior (%)", "setting": "[1]; 1 mg/kg/day oral for 7 days", "value": 50.87, "unit": "%"}, {"measurement": "Alternating behavior (%)", "setting": "[1]; 1 mg/kg/day oral for 7 days, listed as araliadiol", "value": "increase in the rate of alternation behavior"}, {"measurement": "Alternating behavior (%)", "setting": "[1]; 10 mg/kg/day oral for 7 days", "value": "53.18(*) %"}, {"measurement": "Alternating behavior (%)", "setting": "[1]; 10 mg/kg/day oral for 7 days, listed as araliadiol", "value": "improvement in the rate of alternating behavior"}, {"measurement": "cell cycle", "setting": "[2]", "value": "arrest the cell cycle"}, {"measurement": "proliferation", "setting": "[2]", "value": "inhibit the proliferation"}]}
